Assay results reported in patent US9926602B2, “Recurrent gene fusions in prostate cancer” (THE REGENTS OF THE UNIVERSITY OF MICHIGAN, priority 2009, dated 2018).

Test system: UBE2L3-KRAS fusion protein
Experiment: Western blot of UBE2L3-KRAS fusion protein with or without bortezomib
Type: cell-based, human
Description: The prostate cancer cell lines DU145 were transfected with siRNA duplex (Dharmacon, Lafayette, Colo., USA) against UBE2L3 (5′-CCACCGAAGATCACATTTA-3′; SEQ ID NO:1), KRAS (5′-GAAGTTATGGAATTCCTTT-3′; SEQ ID NO:2) or the fusion junction (5′-CCGACCAAGGCCTGCTGAA-3′; SEQ ID NO:3) by oligofectamine (Invitrogen). DU145 transfected with non-targeting siRNA and RWPE cells was used as negative control. Post 48 hours transfection, cells were homogenized in NP40 lysis buffer (50 mM Tris-HCl, 1% NP40, pH 7.4, Sigma, St. Louis, Mo.), and complete proteinase inhibitor mixture (Roche, Indianapolis, Ind.). Ten micrograms of each protein extract were boiled in sample buffer, separated by SDS-PAGE, and transferred onto Polyvinylidene Difluoride membrane (GE Healthcare, Piscataway, N.J.). The membrane was incubated for one hour in blocking buffer [Tris-buffered saline, 0.1% Tween (TBS-T), 5% nonfat dry milk] and incubated overnight at 4° C. with the following antibodies: anti-RAS mouse monoclonal (1:1000 in blocking buffer, Millipore Cat #: 05-516), anti-KRAS rabbit polyclonal (1:1000, Proteintech Group Inc., Cat #: 12063-1-AP) and anti-beta Actin mouse monoclonal (1:5000, Sigma Cat #: A5441) antibodies. Following three washes with TBS-T, the blot was incubated with horseradish peroxidase-conjugated secondary antibody and the signals visualized by enhanced chemiluminescence system as described by the manufacturer (GE Healthcare). To test fusion protein expression in multiple prostate derived cell lines, lysates from DU145, PrEC, RWPE, 22RV1, VCaP, PC3 either untreated or treated with 500 nM bortezomib for 12 hours were used. Bortezomib treated HEK cells over-expressing UBE2L3-KRAS fusion protein was used as a positive control. […] For ERK activation analysis NIH 3T3 cells were starved for 12 hours before immunoblot analysis using phospho erk1/2 antibody. All antibodies for the MAPK signaling proteins were purchased from Cell Signaling Technologies.

CC(C)C[C@H](NC(=O)[C@H](Cc1ccccc1)NC(=O)c1cnccn1)B(O)O [bortezomib]
levels of UBE2L3-KRAS protein expression (DU145 cells incubated with bortezomib): enhanced | expression of the UBE2L3-KRAS fusion protein (HEK293 cells over-expressing UBE2L3-KRAS construct, in the presence of bortezomib): clearly apparent | expression of the UBE2L3-KRAS fusion protein (RWPE cells overexpressing UBE2L3-KRAS): required
